Laboratory results from paper PMC9964281, “Identification of CBPA as a New Inhibitor of PD-1/PD-L1 Interaction” (International Journal of Molecular Sciences, 2023).
pKd: −log10 of the molar value.

Target: T1, hPD-L1 (Homo sapiens, UniProt Q9NZQ7)
T1 construct: gene CD274; ectodomain (residues 18–239)
Assay: SPR (Biacore X100, CM5 chip with immobilized hPD-L1, steady-state fit)
Assay type: binding

T1 sequence (Q9NZQ7 18-239): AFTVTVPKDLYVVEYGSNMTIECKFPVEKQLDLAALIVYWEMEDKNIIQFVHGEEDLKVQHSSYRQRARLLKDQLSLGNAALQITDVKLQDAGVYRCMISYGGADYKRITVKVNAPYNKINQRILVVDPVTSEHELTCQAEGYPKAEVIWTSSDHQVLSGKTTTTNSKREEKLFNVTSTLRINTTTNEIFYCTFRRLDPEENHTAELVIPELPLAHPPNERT

Structure (SMILES): Clc1ccc(COc2ccc(CNCc3ccncc3)cc2)cc1 [CBPA, N-{4-[(4-chlorobenzyl)oxy]benzyl}-N-(4-pyridinylmethyl)amine]
- pKd: 4.32
